In patent publication US20100120789A1, “Compound” (priority 2005, published 2010) one finds melting point data, which are given here for 40 compounds.

Molecules are shown by their SMILES.

As for `O=C(O)c1ccc(OCC(=O)C23CC4CC(CC(C4)C2)C3)cc1` [STX2318, 4-(2-Adamantan-1-yl-2-oxo-ethoxy)-benzoic acid], the melting point amounted to 185.2 °C. For the compound `O=C(CS(=O)(=O)c1cccs1)C12CC3CC(CC(C3)C1)C2` [STX2295, 1-Adamantan-1-yl-2-(thiophene-2-sulfonyl)-ethanone], the melting point lay in the range of 117.5 to 119 °C. In the case of `CC1(C(=O)NCc2cccs2)CC1` [STX1641, 1-Methyl-cyclopropanecarboxylic acid (thiophen-2-yl methyl)-amide], the melting point is 70 to 71 °C. To `O=S(=O)(NC12CC3CC(CC(C3)C1)C2)c1ccc(-c2ccccc2)cc1` [STX1344, Biphenyl-4-sulfonic acid adamantan-1-ylamide] belongs 205 to 205.5 °C; to `O=C(CC12CC3CC(CC(C3)C1)C2)N1CCc2sccc2C1`, 121 to 125 °C. In turn, `O=C(COCc1cccs1)C12CC3CC(CC(C3)C1)C2` [STX1692, 1-Adamantan-1-yl-2-(thiophen-2-ylmethoxy)-ethanone] displayed a melting point of 57.2 to 58.3 °C. On to `Cc1c(Cl)cccc1S(=O)(=O)NCC12CC3CC(CC(C3)C1)C2` [STX1370, N-Adamantan-1-ylmethyl-3-chloro-2-methyl-benzenesulfonamide], for which the melting point was 183 to 184 °C. In the case of `O=C(CC12CC3CC(CC(C3)C1)C2)N1CCN(c2ccccn2)CC1`, the melting point was 134 to 136 °C. To `CN(Cc1cccn1C)C(=O)CC12CC3CC(CC(C3)C1)C2` [STX2407, 2-Adamantan-1-yl-N-methyl-N-(1-methyl-1H-pyrrol-2-ylmethyl)-acetamide] belongs 75 to 76.5 °C; to `Cc1ccc(CN(C)C(=O)C23CC4CC(CC(C4)C2)C3)s1` [STX2067, Adamantane-1-carboxylic acid methyl-(5-methyl-thiophen-2-ylmethyl)-amide], 83 to 85.5 °C. Next, `O=C(Nc1ccccc1)c1ccc(OCC(=O)C23CC4CC(CC(C4)C2)C3)cc1`: 184.3 °C; `O=C(NCCc1cccs1)C12CC3CC(CC(C3)C1)C2` [STX1375, Adamantane-1-carboxylic acid (2-thiophen-2-yl-ethyl)-amide]: 123 to 126 °C; `CN(CC(=O)C12CC3CC(CC(C3)C1)C2)Cc1cccs1.Cl`: 201 to 203 °C. Next, `CN(Cc1ccsc1)C(=O)CC12CC3CC(CC(C3)C1)C2` [STX2406, 2-Adamantan-1-yl-N-methyl-N-thiophen-3-ylmethyl-acetamide]: 69 to 71 °C; `O=C(NCCc1cccs1)C12CC3CC(CC(O)(C3)C1)C2` [STX1676, 3-Hydroxy-adamantane-1-carboxylic acid(2-thiophen-2-yl-ethyl)-amide]: 118 to 119 °C; `COc1cc2c(cc1OC)CN(C(=O)C13CC4CC(CC(C4)C1)C3)CC2`: 151 to 155 °C. As to `CN(Cc1cccs1)C(=O)C12CC3CC(CC(O)(C3)C1)C2`, the melting point lay within 88 to 91 °C. To `O=C(NCCc1cccs1)[C@@H]1CC2C=CC1C2` (stereo partly drawn) [STX1708, Bicyclo[2.2.1]hept-5-ene-2-carboxylic acid(2-thiophen-2-yl-ethyl)-amide (endo)] belongs 122 to 124 °C. The compound `CN(Cc1ccco1)C(=O)C12CC3CC(CC(C3)C1)C2` [STX2247, Adamantane-1-carboxylic acid furan-2-ylmethyl-methyl-amide] showed a melting point of 53.5 to 54.5 °C. In the case of `O=C(N1CCN(c2ccc(Cl)cc2)CC1)C12CC3CC(CC(C3)C1)C2` [STX2120, Adamantan-1-yl-[4-(4-chloro-phenyl)-piperazin-1-yl]methanone], the melting point is 183 to 185 °C. `Cc1c(C(=O)CS(=O)(=O)Cc2ccc(Cl)cc2)sc2ccc(Cl)cc12` [STX2296, 1-(5-Chloro-3-methyl-benzo[b]thiophen-2-yl)-2-(4-chloro-phenylmethanesulfonyl)-ethanone] displayed a melting point of 204.5 to 205.5 °C. `COC(=O)Cc1ccc(OCC(=O)C23CC4CC(CC(C4)C2)C3)cc1` [STX2320, [4-(2-Adamantan-1-yl-2-oxo-ethoxy)-phenyl]-acetic acid methyl ester] returned a melting point of 71.9 °C. To `O=C(NCc1ccc(Cl)cc1)C12CC3CC(CC(C3)C1)C2` belongs 150 to 153 °C. Next, `CC(C)(C)c1ccc(CS(=O)(=O)CC(=O)C23CC4CC(CC(C4)C2)C3)cc1`: 127.7 °C; `O=C(N1CCN(c2ccccn2)CC1)C12CC3CC(CC(C3)C1)C2` [STX2065, Adamantan-1-yl-(4-pyridin-2-yl-piperazin-1-yl)-methanone]: 137 to 140 °C; `COc1cc2c(cc1OCc1ccccc1)CCN(C(=O)C13CC4CC(CC(C4)C1)C3)C2`: 144 to 145 °C. To `CN(Cc1cccs1)C(=O)CSC12CC3CC(CC(C3)C1)C2` belongs 51 to 53 °C. In the case of `CN(Cc1cccnc1)C(=O)C12CC3CC(CC(C3)C1)C2` [STX2135, Adamantane-1-carboxylic acid methyl-pyridin-3-ylmethyl-amide], the melting point was in the range of 57 to 59.5 °C. Next, `O=C(CS(=O)(=O)Cc1cccs1)C12CC3CC(CC(C3)C1)C2` [STX2299, 1-Adamantan-1-yl-2-(thiophen-2-ylmethanesulfonyl)-ethanone]: 95.5 to 98 °C; `Cc1cccc(CS(=O)(=O)CC(=O)C23CC4CC(CC(C4)C2)C3)c1`: 132.8 °C. Next, `CCN(CC)C(=O)c1ccc(OCC(=O)C23CC4CC(CC(C4)C2)C3)cc1` [STX2375, 4-(2-Adamantan-1-yl-2-oxo-ethoxy)-N,N-diethyl-benzamide]: 103.9 °C. With `O=C(NCCc1cccs1)NC12CC3CC(CC(C3)C1)C2` [STX1714, 1-Adamantan-1-yl-3-(2-thiophen-2-yl-ethyl)-urea], the melting point fell in the range of 138 to 142 °C.

Take `CC(C)(C)CC(=O)NCc1cccs1` [STX1639, 3,3-Dimethyl-N-thiophen-2-ylmethyl-butyramide]: the melting point lay in the range of 83 to 84 °C. The compound `O=C(NCc1ccc(Cl)cc1)C1CCN(C(=O)C23CC4CC(CC(C4)C2)C3)CC1` [STX2306, 1-(Adamantane-1-carbonyl)-piperidine-4-carboxylic acid 4-chloro-benzylamide] returned a melting point of 150 to 152 °C. For the compound `CC12CC3CC(C)(C1)CC(C(=O)NCCc1cccs1)(C3)C2` [STX1672, 3,5-Dimethyl-adamantane-1-carboxylic acid(2-thiophen-2-yl-ethyl)-amide], the melting point was in the range of 131 to 132 °C. With `O=C(CC12CC3CC(CC(C3)C1)C2)N1CCN(C(=O)c2ccco2)CC1`, the melting point fell in the range of 98 to 100 °C. `Cc1nc2cc(NCC(=O)C3(C)CC3)ccc2s1` registered a melting point of 116 to 120 °C. To `O=C(NCc1ccccc1)c1ccc(OCC(=O)C23CC4CC(CC(C4)C2)C3)cc1` belongs 145.6 °C; to `O=C(CSc1cccs1)C12CC3CC(CC(C3)C1)C2` [STX1902, 1-Adamantan-1-yl-2-(thiophen-2-ylsulfanyl)-ethanone], 69 to 72 °C. To `CC(C)(C)C(=O)NCCc1cccs1` [STX1674, 2,2-Dimethyl-N-(2-thiophen-2-yl-ethyl)-propionamide] belongs 79 to 80 °C.

Usually melting point stands for the temperature, or range, at which the solid turns liquid.
